# Key:
# Experiment in all cases: Generic kinase assay (33P-ATP, Myelin Basic Protein)
# Format in all cases: biochemical
# [1] = molecular target: RICK (Homo sapiens, UniProt O43353); settings: class symbol: % inhibition at 10 μM or IC50; for inhibition at 10 µM: 1 h, read-out: Inhibitory effect on target RICK
# Protocol: (§1) In order to determine the inhibitory effect of the compounds of the subject invention on various target enzymes a generic kinase assay was established.
# (§2) Reactions were performed in 96-Well U-bottom microtiter plates (Greiner Bio-One; Frickenhausen/Germany, Cat. No. 650161), hereinafter designated “Assay Plates”. 10 μl of a solution comprising 40 μM Myelin Basic Protein (Invitrogen; Carlsbad, Calif./USA; Cat. No. 13228-010) and 4 μM ATP in three-fold concentrated Reaction Buffer (60 mM Tris-HCl, pH 7.5; 30 mM MgCl2; 3 mM dithiothreitol) were added into each well of the Assay Plate. 10 μl of serial dilutions of the compounds of the subject invention, dissolved in 4% DMSO, were then added into each well, except for Positive Control. Wells (C+ wells) and Negative Control Wells (C− wells). 10 μl of 4% DMSO without compounds were added to C+ and C− wells. 10 μl of a 500 mM solution of EDTA in water was then added to C− wells. Then 10 μl of a solution containing 50 μCi/ml Adenosine 5′-[γ-^33P]triphosphate in water was added to each well. To start the reaction 10 μl of the kinase to be assayed was added to each well. The optimal amount of kinase in the assay was determined to be the amount which yields to a turn-over of about 10% of ATP. Assay Plates were incubated for one hour at room temperature. Then 10 μl of a 500 mM solution of EDTA in water was added to each well except C− wells. Samples were now ready for measurement.
# (§3) Measurements were preformed in 96-Well MAPH-Filter Plates (Millipore; Billerica, Mass./United States; Cat. No. MAPHNOB50), hereinafter designated “Measurement Plates”. Measurement Plates were washed with 200 μl of a 0.75% H3PO4 solution per well. The H3PO4 solution was exhausted using a Millipore vacuum station. 60 μl of a 0.75% H3PO4 solution was then added into each well, followed by the transfer of 30 μl of each well from the Assay Plate into the corresponding wells of the Measurement Plate. The Measurement Plate was incubated for 30 minutes at room temperature. Thereafter each well was washed three times with 200 μl of a 0.75% H3PO4 solution using a Millipore vacuum station. 20 μl of scintillation liquid (Supermix Liquid Szintillator; Perkin Elmer, Wellesley. Mass./United States; Cat. No. 1200-439) was then added to each well of the Measurement Plate. The plate was sealed and stored for 30 minutes in the darkness before radioactivity was quantified in a MicroBeta Scintillation Counter (Perkin Elmer, Wellesley. Mass./United States).
# [2] = molecular target: ROCK 2 (Homo sapiens, UniProt O75116); settings: class symbol: % inhibition at 10 μM or IC50; for inhibition at 10 µM: 1 h, read-out: Inhibitory effect on target ROCK 2
# Protocol: as §1, §2, §3
# [3] = molecular target: EGFR (Homo sapiens, UniProt P00533); settings: class symbol: % inhibition at 10 μM or IC50
# Protocol: as §1, §2, §3
# [4] = tested on: PDGFR; settings: class symbol: % inhibition at 10 μM or IC50
# Protocol: as §1, §2, §3
# [5] = molecular target: c-kit (Homo sapiens, UniProt P10721); settings: 1 h; class symbol: % inhibition at 10 μM or IC50; read-out: Inhibitory effect on target c-kit
# Protocol: as §1, §2, §3
# [6] = molecular target: Abl (Homo sapiens, UniProt P00519); settings: 1 h; class symbol: % inhibition at 10 μM or IC50; read-out: Inhibitory effect on target Abl
# Protocol: as §1, §2, §3
# [7] = molecular target: cRaf (Homo sapiens, UniProt P04049); settings: 1 h; class symbol: % inhibition at 10 μM or IC50; read-out: Inhibitory effect on target cRaf
# Protocol: as §1, §2, §3
# [8] = molecular target: p56Lck (Homo sapiens, UniProt P06239); settings: 1 h; class symbol: % inhibition at 10 μM or IC50; read-out: Inhibitory effect on target p56Lck
# Protocol: as §1, §2, §3
# [9] = molecular target: CDK1/CyclinB (Homo sapiens, UniProt P06493); settings: class symbol: % inhibition at 10 μM or IC50
# Protocol: as §1, §2, §3
# Sequence of cRaf (P04049 whole entry, species assumed): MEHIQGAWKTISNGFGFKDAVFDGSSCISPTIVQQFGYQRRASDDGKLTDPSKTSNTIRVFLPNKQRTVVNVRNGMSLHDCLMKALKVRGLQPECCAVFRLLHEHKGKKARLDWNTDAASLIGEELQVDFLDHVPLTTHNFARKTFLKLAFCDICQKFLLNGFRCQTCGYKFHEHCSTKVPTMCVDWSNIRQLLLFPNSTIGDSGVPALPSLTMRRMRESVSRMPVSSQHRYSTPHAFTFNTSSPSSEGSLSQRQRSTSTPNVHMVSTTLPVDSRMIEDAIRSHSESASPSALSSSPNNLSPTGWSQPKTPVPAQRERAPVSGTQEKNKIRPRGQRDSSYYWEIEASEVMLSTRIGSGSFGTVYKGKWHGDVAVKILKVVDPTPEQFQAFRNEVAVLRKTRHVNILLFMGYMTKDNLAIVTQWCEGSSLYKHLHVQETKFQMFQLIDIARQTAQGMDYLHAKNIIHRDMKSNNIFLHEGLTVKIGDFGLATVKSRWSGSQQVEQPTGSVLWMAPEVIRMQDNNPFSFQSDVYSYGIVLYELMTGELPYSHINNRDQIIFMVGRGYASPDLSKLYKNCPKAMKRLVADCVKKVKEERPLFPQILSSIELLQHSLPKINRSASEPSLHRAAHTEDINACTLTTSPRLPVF
# Sequence of Abl (P00519 whole entry, species assumed): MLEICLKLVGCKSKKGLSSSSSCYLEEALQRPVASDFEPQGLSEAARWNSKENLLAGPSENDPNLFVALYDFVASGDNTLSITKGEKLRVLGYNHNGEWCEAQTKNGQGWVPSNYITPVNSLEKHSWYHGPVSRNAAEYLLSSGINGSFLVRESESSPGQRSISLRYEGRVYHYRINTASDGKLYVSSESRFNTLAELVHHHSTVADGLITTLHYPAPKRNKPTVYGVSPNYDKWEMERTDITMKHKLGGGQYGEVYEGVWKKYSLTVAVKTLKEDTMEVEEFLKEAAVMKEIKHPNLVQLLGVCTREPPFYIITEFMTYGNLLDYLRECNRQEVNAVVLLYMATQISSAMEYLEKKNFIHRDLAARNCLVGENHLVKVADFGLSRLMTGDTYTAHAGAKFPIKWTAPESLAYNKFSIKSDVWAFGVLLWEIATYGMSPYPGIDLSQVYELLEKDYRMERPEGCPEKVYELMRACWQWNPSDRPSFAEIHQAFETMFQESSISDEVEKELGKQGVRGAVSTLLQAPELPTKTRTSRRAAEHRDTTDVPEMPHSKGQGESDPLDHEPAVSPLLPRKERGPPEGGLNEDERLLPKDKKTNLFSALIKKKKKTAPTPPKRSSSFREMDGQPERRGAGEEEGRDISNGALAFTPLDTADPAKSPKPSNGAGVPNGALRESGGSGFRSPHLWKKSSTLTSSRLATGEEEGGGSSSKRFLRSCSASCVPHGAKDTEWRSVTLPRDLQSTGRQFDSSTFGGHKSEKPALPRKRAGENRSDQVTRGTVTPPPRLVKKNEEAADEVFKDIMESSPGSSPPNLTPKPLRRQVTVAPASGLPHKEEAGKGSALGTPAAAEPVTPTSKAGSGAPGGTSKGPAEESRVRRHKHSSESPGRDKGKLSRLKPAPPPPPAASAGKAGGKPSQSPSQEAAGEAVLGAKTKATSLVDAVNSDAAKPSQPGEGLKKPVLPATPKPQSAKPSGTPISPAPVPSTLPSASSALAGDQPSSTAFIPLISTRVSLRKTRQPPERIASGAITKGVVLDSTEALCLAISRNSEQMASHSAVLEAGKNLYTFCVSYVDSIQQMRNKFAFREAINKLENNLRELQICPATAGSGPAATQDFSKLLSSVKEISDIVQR
# Sequence of RICK (O43353 whole entry, species assumed): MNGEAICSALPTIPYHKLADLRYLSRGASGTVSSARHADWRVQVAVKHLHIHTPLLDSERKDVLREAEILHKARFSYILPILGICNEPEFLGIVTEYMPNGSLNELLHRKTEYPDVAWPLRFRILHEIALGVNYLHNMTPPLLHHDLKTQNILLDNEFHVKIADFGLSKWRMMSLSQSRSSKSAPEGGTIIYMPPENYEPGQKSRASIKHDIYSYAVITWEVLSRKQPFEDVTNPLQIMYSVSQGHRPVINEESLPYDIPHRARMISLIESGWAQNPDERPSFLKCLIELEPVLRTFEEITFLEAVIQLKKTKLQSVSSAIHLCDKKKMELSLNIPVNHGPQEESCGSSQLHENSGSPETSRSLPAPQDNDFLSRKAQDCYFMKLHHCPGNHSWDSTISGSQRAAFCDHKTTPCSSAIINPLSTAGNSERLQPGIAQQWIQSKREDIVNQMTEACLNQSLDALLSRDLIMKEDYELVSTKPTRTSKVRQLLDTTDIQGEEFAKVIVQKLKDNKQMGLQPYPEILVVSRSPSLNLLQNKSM
# Sequence of EGFR (P00533 25-1210, species assumed): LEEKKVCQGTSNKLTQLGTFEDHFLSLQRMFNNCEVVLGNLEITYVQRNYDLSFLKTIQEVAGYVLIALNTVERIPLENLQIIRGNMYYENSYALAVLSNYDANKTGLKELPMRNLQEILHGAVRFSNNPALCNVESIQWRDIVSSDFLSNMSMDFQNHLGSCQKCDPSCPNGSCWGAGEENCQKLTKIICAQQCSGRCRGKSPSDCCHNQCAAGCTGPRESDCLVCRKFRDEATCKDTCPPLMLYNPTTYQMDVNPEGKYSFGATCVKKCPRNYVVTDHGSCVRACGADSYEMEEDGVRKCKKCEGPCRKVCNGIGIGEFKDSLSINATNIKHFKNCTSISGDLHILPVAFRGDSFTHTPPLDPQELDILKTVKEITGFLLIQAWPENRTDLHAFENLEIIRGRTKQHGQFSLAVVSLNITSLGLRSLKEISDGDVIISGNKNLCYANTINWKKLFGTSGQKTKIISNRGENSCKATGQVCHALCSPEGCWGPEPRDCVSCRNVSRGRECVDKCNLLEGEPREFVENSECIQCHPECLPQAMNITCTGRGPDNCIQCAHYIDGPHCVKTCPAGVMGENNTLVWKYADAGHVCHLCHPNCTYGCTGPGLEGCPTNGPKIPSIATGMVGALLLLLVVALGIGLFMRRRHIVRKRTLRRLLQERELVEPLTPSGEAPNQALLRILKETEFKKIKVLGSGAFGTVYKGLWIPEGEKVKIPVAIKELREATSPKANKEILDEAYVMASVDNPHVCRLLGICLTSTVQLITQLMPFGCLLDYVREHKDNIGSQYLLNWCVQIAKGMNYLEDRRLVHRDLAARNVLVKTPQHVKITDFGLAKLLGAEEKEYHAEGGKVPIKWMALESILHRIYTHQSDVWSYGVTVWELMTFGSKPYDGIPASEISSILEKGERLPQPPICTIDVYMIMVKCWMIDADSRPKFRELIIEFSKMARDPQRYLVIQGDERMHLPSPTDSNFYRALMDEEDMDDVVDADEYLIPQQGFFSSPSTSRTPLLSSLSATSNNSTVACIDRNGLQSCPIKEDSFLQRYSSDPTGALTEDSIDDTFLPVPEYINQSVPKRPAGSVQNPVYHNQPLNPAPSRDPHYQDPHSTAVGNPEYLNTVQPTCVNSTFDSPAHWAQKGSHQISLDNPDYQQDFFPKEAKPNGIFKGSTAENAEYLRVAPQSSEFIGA
# Sequence of p56Lck (P06239 whole entry, species assumed): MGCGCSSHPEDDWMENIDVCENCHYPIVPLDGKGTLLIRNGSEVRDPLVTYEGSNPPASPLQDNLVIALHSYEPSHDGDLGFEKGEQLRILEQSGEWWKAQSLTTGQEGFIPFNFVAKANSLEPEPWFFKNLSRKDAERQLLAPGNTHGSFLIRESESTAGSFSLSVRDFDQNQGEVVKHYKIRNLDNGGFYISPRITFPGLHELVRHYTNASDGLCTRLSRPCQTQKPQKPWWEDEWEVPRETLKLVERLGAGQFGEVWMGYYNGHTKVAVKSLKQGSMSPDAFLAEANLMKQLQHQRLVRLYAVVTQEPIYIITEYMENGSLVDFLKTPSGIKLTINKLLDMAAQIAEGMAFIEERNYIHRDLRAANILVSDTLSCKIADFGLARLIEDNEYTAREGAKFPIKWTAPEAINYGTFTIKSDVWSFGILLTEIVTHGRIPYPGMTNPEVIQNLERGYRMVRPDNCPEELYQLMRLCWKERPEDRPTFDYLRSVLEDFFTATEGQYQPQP
# Sequence of c-kit (P10721 26-976): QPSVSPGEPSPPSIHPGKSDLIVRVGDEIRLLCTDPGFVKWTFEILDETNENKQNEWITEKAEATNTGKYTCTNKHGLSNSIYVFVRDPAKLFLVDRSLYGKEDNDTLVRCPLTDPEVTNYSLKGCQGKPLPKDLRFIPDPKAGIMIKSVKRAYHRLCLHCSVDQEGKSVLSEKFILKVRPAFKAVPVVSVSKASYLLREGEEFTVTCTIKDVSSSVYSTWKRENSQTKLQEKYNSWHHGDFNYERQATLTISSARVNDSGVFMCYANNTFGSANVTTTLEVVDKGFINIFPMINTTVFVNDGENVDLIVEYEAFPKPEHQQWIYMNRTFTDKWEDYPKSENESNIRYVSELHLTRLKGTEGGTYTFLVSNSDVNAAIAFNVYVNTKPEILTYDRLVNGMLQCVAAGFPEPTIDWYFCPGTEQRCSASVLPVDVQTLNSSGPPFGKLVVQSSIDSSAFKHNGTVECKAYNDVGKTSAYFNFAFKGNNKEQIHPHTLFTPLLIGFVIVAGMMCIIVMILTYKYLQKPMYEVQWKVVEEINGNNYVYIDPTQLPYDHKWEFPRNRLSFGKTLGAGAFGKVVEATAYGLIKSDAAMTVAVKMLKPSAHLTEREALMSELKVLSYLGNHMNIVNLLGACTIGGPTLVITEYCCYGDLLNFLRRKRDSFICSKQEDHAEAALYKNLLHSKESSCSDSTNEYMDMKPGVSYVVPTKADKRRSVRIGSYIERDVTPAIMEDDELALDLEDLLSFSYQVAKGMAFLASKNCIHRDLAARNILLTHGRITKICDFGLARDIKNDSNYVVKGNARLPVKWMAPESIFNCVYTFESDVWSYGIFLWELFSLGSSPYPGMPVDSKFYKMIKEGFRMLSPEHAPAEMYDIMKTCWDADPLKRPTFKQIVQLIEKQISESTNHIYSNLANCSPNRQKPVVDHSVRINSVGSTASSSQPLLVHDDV
Compound,inhibition at 10 µM [1] [%],inhibition at 10 µM [2] [%],Inhibitory effect on target EGFR [3],Inhibitory effect on target PDGFR [4],Inhibitory effect on target RICK [1],inhibition at 10 µM [5] [%],inhibition at 10 µM [6] [%],inhibition at 10 µM [7] [%],inhibition at 10 µM [8] [%],Inhibitory effect on target ROCK 2 [2],Inhibitory effect on target CDK1/CyclinB [9]
"Oc1ccc(-c2cncc(NCc3ccc4c(c3)OCO4)c2)cc1 [Compound 126, 4-{5-[(Benzo[1,3]dioxol-5-ylmethyl)-amino]-pyridin-3-yl}-phenol]",50 to 90,50 to 90,–,–,–,–,–,–,–,–,–
"Oc1ccc(-c2cncc(NCc3ccc(F)c(F)c3)c2)cc1 [Compound 127, 4-[5-(3,4-Difluoro-benzylamino)-pyridin-3-yl]-phenol]",50 to 90,50 to 90,–,–,–,–,–,–,–,–,–
"Cc1ccc(CNc2cncc(-c3cccc(O)c3)c2)cc1O [Compound 247, 5-{[5-(3-Hydroxy-phenyl)-pyridin-3-ylamino]-methyl}-2-methyl-phenol]",–,50 to 90,A (A: 50-90% inhibition at 10 μM enzyme concentration),A (A: 50-90% inhibition at 10 μM enzyme concentration),C (C: IC50 measured: <1 μM),50 to 90,–,–,–,–,–
"OCc1ccc(-c2cncc(NCc3cccc(O)c3)c2)cc1 [Compound 229, 3-{[5-(4-Hydroxymethyl-phenyl)-pyridin-3-ylamino]-methyl}-phenol]",–,50 to 90,A (A: 50-90% inhibition at 10 μM enzyme concentration),A (A: 50-90% inhibition at 10 μM enzyme concentration),C (C: IC50 measured: <1 μM),> 90,50 to 90,50 to 90,50 to 90,–,–
"NC(=O)c1cccc(-c2cncc(NCc3cccc(O)c3)c2)c1 [Compound 230, 3-[5-(3-Hydroxy-benzylamino)-pyridin-3-yl]-benzamide]",–,–,A (A: 50-90% inhibition at 10 μM enzyme concentration),–,C (C: IC50 measured: <1 μM),> 90,> 90,50 to 90,> 90,C (C: IC50 measured: <1 μM),–
"COc1ccccc1Nc1cncc(-c2cccc(NC(C)=O)c2)c1 [Compound 240, N-{3-[5-(2-Methoxy-phenylamino)-pyridin-3-yl]-phenyl}-acetamide]",–,–,–,A (A: 50-90% inhibition at 10 μM enzyme concentration),C (C: IC50 measured: <1 μM),–,–,–,50 to 90,–,A (A: 50-90% inhibition at 10 μM enzyme concentration)
"Oc1cccc(CNc2cncc(-c3cccc(O)c3)c2)c1 [Compound 225, 3-{5-[(3-Hydroxybenzyl)amino]pyridin-3-yl}phenol]",–,50 to 90,A (A: 50-90% inhibition at 10 μM enzyme concentration),A (A: 50-90% inhibition at 10 μM enzyme concentration),C (C: IC50 measured: <1 μM),> 90,50 to 90,50 to 90,> 90,–,–
"O=C(O)c1cccc(-c2cncc(NCc3cccc(O)c3)c2)c1 [Compound 246, 3-[5-(3-Hydroxy-benzylamino)-pyridin-3-yl]-benzoic acid]",–,–,A (A: 50-90% inhibition at 10 μM enzyme concentration),A (A: 50-90% inhibition at 10 μM enzyme concentration),C (C: IC50 measured: <1 μM),50 to 90,50 to 90,> 90,50 to 90,–,–
"COc1ccc(-c2cncc(NCc3cccc(O)c3)c2)cc1OC [Compound 223, 3-{[5-(3,4-Dimethoxy-phenyl)-pyridin-3-ylamino]-methyl}-phenol]",–,–,A (A: 50-90% inhibition at 10 μM enzyme concentration),A (A: 50-90% inhibition at 10 μM enzyme concentration),C (C: IC50 measured: <1 μM),> 90,50 to 90,50 to 90,50 to 90,–,–

# Reference: patent publication US20090196912A1, “Pyridinylamines” (GPC Botech AG, priority 2004, published 2009)
